How the values were obtained:
Type in all cases: in vivo, human
[1] = test system: caspase-driven cell death (cCK18, caspase 3/7, flCK18); test: Phase 2 clinical trial in liver cirrhosis: mechanism-based biomarkers (cCK18, caspase 3/7, flCK18); conditions: overall patient population
Method: (§1) A double-blind, placebo-controlled Phase 2 clinical trial was conducted at 26 U.S. sites and enrolled 86 patients with liver cirrhosis due to different etiologies, mild to moderate liver impairment as determine by Child Pugh classification and baseline MELD scores of 11 to 18. Patients were randomized 1:1 to receive either 25 mg of emricasan (IDN-6556) or placebo orally twice daily for three months. Endpoints included a change from baseline in cCK18 and changes from baseline in MELD and Child-Pugh scores, which are composite scores of laboratory parameters associated with liver synthetic and excretory function, such as serum albumin levels, international normalized ratio (INR) and total bilirubin levels.
(§2) Among the 86 subjects enrolled and receiving study drug, liver cirrhosis etiologies included alcohol (39%), hepatitis C virus (29%), non-alcoholic steatohepatitis, or NASH (23%), and other causes (9%). Baseline MELD scores were […] in 78% of enrolled subjects and >15 in 22% of enrolled subjects. Baseline Child-Pugh status was A in 43% of subjects and B in 56% of subjects.

[2] = test system: patients with liver cirrhosis; test: Phase 2 clinical trial in liver cirrhosis: common indicators of liver damage (ALT, AST); conditions: overall patient population
Method: as §1, §2

[3] = test system: patients with liver cirrhosis; test: Phase 2 clinical trial in liver cirrhosis: liver function (MELD score, Child-Pugh score, total bilirubin, INR, albumin); conditions: for INR Change at Month 3 / Total bilirubin Change at Month 3 / Albumin Change at Month 3 / Child-Pugh score Change at Month 3 / MELD score Change at Month 3: 25 mg orally twice daily, three months, LOCF
Method: as §1, §2
The overall trends were driven by statistically significant improvements in MELD and Child-Pugh scores in a high medical need subgroup of patients with baseline MELD scores ≥15, the established prerequisite for listing a patient for liver transplant.

[4] = baseline MELD ≥15 subgroup, after three months of treatment, placebo two of ten

C[C@H](NC(=O)C(=O)Nc1ccccc1C(C)(C)C)C(=O)N[C@@H](CC(=O)O)C(=O)COc1c(F)c(F)cc(F)c1F [Emricasan, (3S)-3-[N—(N′-(2-tert-Butylphenyl) Oxamyl)Alaninyl]Amino-5-(2′,3′,5′,6′-Tetrafluorophenoxy)-4-Oxopentanoic Acid]
other mechanism-based biomarkers (caspase 3/7, flCK18) [1]: positive changes | cCK18 Change at Month 3 ([1]; N = 44, 25 mg orally twice daily for three months, last observation carried forward, baseline 289 U/L (geometric mean), p 0.04 vs placebo): −4.6% | flCK18 Change at Month 3 ([1]; N = 44, 25 mg orally twice daily, three months, LOCF, baseline 714 U/L, p 0.005 vs placebo): −18% | Caspase 3/7 Change at Month 3 ([1]; N = 44, 25 mg orally twice daily, three months, LOCF, baseline 2656 RLU, p <0.0001 vs placebo): −45.5% | caspase-cleaved cytokeratin 18 (cCK18) vs. placebo ([1]; adjusted for baseline MELD score and disease etiology, p=0.04): statistically significant reduction | common indicators of liver damage (ALT, AST) [2]: positive changes | ALT Change at Month 3 (median change) ([2]; N = 44, 25 mg orally twice daily, three months, LOCF, baseline 27.5, p 0.03 vs placebo): −3.0 U/L | AST Change at Month 3 (median change) ([2]; N = 44, 25 mg orally twice daily, three months, LOCF, baseline 50.0, p 0.08 vs placebo): −5.0 U/L | INR Change at Month 3 ([3]; baseline MELD score ≥15 patient population, N = 9, baseline 1.54, p 0.0004 vs placebo): −0.14 | Total bilirubin Change at Month 3 ([3]; baseline MELD score ≥15 patient population, N = 9, baseline 3.17, p 0.03 vs placebo): -0.55 mg/dL | Albumin Change at Month 3 ([3]; baseline MELD score ≥15 patient population, N = 9, baseline 3.41, p 0.78 vs placebo): +0.07 g/dL | Child-Pugh score Change at Month 3 ([3]; baseline MELD score ≥15 patient population, N = 9, baseline 7.8, p 0.003 vs placebo): −0.6 | MELD score Change at Month 3 ([3]; baseline MELD score ≥15 patient population, N = 9, baseline 16.0, p 0.003 vs placebo): −1.6 | patients with an increase in Child-Pugh score ([3]; baseline MELD ≥15 subgroup, after three months of treatment, placebo four out of ten (at least one point increase)): none of nine | patients who achieved a reduction in MELD score to below 14 ([3]; baseline MELD ≥15 subgroup, after three months of treatment, placebo one out of ten): Four of nine | patients who achieved at least a 2 point reduction in MELD score [3, 4]: Six of nine | patients with at least a one point reduction in Child Pugh score [3, 4]: Four of nine | INR Change at Month 3 ([3]; overall patient population, N = 44, baseline 1.33, p 0.12 vs placebo): −0.02 | Total bilirubin Change at Month 3 ([3]; overall patient population, N = 44, baseline 2.25, p 0.19 vs placebo): -0.05 mg/dL | Albumin Change at Month 3 ([3]; overall patient population, N = 44, baseline 3.46, p 0.38 vs placebo): +0.02 g/dL | Child-Pugh score Change at Month 3 ([3]; overall patient population, N = 44, baseline 6.9, p 0.10 vs placebo): −0.2 | MELD score Change at Month 3 ([3]; overall patient population, N = 44, baseline 12.8, p 0.50 vs placebo): −0.1
